# Like-named read-outs stand apart in the source and are kept apart here.
# Key:
# Assay in all cases: biochemical
# Set-up in all cases: Reaction Biology 371-kinase panel at Km ATP, per cent enzyme activity relative to DMSO, single dose in duplicate
# TESK1 = TESK1 (Homo sapiens, UniProt Q15569); settings: duplicate measurements, Km ATP; read-out: % Enzyme Activity (relative to DMSO controls) / TP-0005801 (0.3µM) / Data 1
# Method in brief: (§1)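 First, kinases from a 371-member panel were exposed in vitro to 300 nM inhibitor. Next, % enzyme activity versus DMSO was computed. Finally, IC50s were derived by sigmoidal dose-response fitting with variable slope and a zero bottom constraint.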
# MEK3 = target: T1, MEK3 (Homo sapiens, UniProt P46734); settings: duplicate measurements, Km ATP
# T1 construct: gene MAP2K3
# T1 sequence (P46734 whole entry): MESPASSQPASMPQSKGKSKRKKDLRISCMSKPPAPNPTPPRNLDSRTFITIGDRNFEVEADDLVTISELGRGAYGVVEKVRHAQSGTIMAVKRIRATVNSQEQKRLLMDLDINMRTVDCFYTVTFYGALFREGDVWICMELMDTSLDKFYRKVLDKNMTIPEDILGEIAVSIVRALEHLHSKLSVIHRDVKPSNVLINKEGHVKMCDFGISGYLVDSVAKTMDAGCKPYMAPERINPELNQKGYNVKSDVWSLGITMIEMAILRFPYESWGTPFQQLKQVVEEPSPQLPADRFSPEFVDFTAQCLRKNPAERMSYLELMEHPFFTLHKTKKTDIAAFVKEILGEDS
# Method in brief: as §1
# EPHB2 = EPHB2 (Homo sapiens, UniProt P29323); settings: duplicate measurements, Km ATP
# EPHB2, sequence (P29323 whole entry): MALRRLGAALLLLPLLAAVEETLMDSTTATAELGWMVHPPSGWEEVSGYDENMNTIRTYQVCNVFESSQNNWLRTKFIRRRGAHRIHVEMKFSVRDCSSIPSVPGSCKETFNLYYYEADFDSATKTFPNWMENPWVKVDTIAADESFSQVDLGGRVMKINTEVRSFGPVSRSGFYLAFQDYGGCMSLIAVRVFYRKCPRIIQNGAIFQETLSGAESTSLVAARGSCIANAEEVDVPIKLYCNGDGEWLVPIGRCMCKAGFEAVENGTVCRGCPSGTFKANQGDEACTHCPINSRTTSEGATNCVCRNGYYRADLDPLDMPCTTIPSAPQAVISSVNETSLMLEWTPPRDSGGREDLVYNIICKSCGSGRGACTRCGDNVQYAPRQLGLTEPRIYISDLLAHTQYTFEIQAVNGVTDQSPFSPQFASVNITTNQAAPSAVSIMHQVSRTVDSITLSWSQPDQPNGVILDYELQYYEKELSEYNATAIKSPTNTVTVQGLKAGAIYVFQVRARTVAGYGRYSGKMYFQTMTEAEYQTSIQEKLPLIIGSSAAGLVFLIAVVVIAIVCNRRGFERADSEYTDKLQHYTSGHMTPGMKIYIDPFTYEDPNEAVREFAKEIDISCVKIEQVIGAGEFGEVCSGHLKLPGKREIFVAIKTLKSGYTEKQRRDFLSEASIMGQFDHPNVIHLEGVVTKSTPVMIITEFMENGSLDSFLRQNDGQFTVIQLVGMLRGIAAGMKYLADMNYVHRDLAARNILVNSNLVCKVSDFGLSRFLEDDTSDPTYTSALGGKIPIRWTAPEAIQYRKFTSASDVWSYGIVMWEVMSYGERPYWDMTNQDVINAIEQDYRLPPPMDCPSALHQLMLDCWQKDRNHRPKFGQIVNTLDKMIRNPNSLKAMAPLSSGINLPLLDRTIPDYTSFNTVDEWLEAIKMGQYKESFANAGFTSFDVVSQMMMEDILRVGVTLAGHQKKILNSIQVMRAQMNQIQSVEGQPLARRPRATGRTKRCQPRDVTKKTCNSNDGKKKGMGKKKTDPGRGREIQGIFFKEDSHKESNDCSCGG
# Method in brief: as §1
# SIK2 = SIK2 (Homo sapiens, UniProt Q9H0K1); settings: duplicate measurements, Km ATP
# Method in brief: as §1
# EPHA2 = EPHA2 (Homo sapiens, UniProt P29317); settings: duplicate measurements, Km ATP
# EPHA2, sequence (P29317 whole entry): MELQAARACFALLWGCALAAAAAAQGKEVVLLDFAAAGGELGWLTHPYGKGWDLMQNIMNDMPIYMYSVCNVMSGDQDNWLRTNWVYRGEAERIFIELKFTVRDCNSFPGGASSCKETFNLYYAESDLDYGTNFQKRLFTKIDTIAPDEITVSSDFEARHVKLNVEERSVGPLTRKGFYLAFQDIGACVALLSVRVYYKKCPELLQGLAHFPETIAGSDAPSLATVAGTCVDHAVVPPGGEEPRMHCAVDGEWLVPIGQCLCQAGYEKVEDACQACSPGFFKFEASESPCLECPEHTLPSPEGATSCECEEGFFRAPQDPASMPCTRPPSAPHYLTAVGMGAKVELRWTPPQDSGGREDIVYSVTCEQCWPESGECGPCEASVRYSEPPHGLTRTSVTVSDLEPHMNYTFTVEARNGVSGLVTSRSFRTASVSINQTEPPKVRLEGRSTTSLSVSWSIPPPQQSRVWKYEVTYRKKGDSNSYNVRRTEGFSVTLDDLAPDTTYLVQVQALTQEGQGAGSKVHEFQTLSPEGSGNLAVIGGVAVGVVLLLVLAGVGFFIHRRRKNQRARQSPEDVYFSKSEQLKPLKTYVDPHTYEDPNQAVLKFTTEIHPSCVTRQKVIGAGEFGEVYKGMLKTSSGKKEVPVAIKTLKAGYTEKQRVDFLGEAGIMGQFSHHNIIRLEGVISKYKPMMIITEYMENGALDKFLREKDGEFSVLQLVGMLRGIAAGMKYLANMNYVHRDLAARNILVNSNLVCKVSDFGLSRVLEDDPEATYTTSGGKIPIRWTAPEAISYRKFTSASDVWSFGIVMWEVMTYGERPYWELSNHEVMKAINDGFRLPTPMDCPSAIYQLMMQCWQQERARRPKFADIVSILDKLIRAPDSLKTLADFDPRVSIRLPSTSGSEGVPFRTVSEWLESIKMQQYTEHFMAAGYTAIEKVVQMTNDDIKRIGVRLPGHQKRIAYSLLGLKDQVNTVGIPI
# Method in brief: as §1
# MAST3 = MAST3 (Homo sapiens, UniProt O60307); settings: duplicate measurements, Km ATP
# Method in brief: as §1
# NIM1 = target: T2, NIM1 (Homo sapiens, UniProt Q8IY84); settings: duplicate measurements, Km ATP
# T2 construct: gene NIM1K
# Method in brief: as §1
# HIPK2 = HIPK2 (Homo sapiens, UniProt Q9H2X6); settings: duplicate measurements, Km ATP
# HIPK2, sequence (Q9H2X6 whole entry): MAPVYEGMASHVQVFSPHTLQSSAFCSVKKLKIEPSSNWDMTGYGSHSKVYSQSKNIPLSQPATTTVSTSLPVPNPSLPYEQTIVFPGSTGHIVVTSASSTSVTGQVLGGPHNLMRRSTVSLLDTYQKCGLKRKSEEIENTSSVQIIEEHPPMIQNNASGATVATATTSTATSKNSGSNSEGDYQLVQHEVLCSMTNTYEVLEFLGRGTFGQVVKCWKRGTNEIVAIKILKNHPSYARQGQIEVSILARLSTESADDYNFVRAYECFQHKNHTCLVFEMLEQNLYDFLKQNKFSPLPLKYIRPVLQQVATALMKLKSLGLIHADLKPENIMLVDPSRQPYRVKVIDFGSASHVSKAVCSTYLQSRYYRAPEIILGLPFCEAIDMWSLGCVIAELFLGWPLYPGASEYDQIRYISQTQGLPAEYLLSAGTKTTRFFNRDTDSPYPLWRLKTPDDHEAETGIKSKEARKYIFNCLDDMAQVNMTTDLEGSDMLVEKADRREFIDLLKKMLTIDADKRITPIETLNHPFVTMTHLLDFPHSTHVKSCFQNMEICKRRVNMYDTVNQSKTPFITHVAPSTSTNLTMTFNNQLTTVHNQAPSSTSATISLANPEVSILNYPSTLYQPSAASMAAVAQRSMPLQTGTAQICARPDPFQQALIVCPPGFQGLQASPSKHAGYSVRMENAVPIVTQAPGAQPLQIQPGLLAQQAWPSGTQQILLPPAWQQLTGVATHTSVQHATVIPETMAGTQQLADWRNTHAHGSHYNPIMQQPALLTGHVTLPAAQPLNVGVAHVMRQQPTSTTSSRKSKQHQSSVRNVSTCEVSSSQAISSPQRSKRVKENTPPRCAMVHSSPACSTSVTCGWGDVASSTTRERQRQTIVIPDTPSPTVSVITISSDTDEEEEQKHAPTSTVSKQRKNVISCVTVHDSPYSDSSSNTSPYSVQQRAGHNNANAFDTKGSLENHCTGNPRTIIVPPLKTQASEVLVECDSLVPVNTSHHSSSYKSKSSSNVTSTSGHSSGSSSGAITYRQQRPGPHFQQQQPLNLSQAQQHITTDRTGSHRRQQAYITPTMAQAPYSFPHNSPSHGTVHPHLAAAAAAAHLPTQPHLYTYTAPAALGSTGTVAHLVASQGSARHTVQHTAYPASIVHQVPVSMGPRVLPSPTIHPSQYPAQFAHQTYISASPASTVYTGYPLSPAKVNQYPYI
# Method in brief: as §1
# c-MET = c-MET (Homo sapiens, UniProt P08581); settings: duplicate measurements, Km ATP
# Method in brief: as §1
# MST4 = target: T3, MST4 (Homo sapiens, UniProt Q9P289); settings: duplicate measurements, Km ATP
# T3 construct: gene STK26
# Method in brief: as §1
# MSK2/RPS6KA4 = MSK2/RPS6KA4 (Homo sapiens, UniProt O75676); settings: duplicate measurements, Km ATP
# Method in brief: as §1
# MKK6 = target: T4, MKK6 (Homo sapiens, UniProt P52564); settings: duplicate measurements, Km ATP
# T4 construct: gene MAP2K6
# Method in brief: as §1
# NEK3 = NEK3 (Homo sapiens, UniProt P51956); settings: duplicate measurements, Km ATP
# NEK3, sequence (P51956 whole entry): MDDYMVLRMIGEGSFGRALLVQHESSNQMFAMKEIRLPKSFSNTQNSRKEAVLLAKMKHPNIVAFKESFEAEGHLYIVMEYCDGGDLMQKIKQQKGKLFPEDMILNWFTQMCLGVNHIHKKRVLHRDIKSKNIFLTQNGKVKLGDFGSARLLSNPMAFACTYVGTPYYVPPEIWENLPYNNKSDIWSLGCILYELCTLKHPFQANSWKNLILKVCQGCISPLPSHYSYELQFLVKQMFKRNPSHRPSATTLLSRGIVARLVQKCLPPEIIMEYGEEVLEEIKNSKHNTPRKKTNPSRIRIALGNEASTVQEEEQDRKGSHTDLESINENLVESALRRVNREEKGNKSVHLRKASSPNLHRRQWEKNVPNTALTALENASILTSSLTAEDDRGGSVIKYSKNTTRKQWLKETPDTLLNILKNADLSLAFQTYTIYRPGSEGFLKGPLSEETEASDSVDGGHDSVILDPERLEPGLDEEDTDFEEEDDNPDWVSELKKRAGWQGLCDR
# Method in brief: as §1
# BMPR2 = BMPR2 (Homo sapiens, UniProt Q13873); settings: duplicate measurements, Km ATP
# Method in brief: as §1
# TTBK1 = TTBK1 (Homo sapiens, UniProt Q5TCY1); settings: duplicate measurements, Km ATP
# Method in brief: as §1
# ERK1 = target: T5, ERK1 (Homo sapiens, UniProt P27361); settings: duplicate measurements, Km ATP
# T5 construct: gene MAPK3
# Method in brief: as §1
# ABL1 = ABL1 (Homo sapiens, UniProt P00519); settings: duplicate measurements, Km ATP
# Method in brief: as §1
# MEK5 = target: T6, MEK5 (Homo sapiens, UniProt Q13163); settings: duplicate measurements, Km ATP
# T6 construct: gene MAP2K5
# T6 sequence (Q13163 whole entry): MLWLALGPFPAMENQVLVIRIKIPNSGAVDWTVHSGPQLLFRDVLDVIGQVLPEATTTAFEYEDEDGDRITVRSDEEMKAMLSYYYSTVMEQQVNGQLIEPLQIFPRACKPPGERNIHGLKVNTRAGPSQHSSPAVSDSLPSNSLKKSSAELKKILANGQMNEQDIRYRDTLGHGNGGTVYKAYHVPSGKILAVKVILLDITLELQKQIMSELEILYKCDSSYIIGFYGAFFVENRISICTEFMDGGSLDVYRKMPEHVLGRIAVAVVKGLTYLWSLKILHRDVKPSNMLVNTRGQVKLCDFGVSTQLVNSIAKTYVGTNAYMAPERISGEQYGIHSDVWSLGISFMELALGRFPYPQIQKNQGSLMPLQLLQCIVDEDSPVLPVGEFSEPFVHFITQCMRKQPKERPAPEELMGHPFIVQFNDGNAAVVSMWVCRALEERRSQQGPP
# Method in brief: as §1
# NEK7 = NEK7 (Homo sapiens, UniProt Q8TDX7); settings: duplicate measurements, Km ATP
# NEK7, sequence (Q8TDX7 whole entry): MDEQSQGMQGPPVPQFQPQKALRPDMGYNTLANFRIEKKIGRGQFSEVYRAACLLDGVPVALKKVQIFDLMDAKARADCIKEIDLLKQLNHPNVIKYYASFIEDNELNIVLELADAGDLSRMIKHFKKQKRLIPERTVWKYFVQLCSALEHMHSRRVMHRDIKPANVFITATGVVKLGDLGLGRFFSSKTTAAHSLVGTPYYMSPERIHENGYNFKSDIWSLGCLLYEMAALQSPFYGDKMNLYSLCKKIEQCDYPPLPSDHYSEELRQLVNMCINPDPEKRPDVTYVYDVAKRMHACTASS
# Method in brief: as §1
# SRPK1 = SRPK1 (Homo sapiens, UniProt Q96SB4); settings: duplicate measurements, Km ATP
# Method in brief: as §1
# [1] = read-out: % Enzyme Activity (relative to DMSO controls) / TP-0005801 (0.3µM) / Data 1
# [2] = read-out: % Enzyme Activity (relative to DMSO controls) / TP-0005801 (0.3µM) / Data 2
structure (smiles),measurement,setting,value
COc1cc(N2CCN(C)CC2)c(C)cc1Nc1ncc(Br)c(Nc2cccnc2N(C)C)n1 [TP-5801],remaining activity at 0.3 µM,TESK1,102%
same,remaining activity at 0.3 µM,MEK3; [1],174%
same,remaining activity at 0.3 µM,MEK3; [2],173%
same,remaining activity at 0.3 µM,EPHB2; [1],86.4%
same,remaining activity at 0.3 µM,EPHB2; [2],85.6%
same,remaining activity at 0.3 µM,SIK2; [1],79.4%
same,remaining activity at 0.3 µM,SIK2; [2],78.3%
same,remaining activity at 0.3 µM,EPHA2; [1],98.3%
same,remaining activity at 0.3 µM,EPHA2; [2],95.9%
same,remaining activity at 0.3 µM,MAST3; [1],101%
same,remaining activity at 0.3 µM,MAST3; [2],100%
same,remaining activity at 0.3 µM,NIM1; [1],102%
same,remaining activity at 0.3 µM,NIM1; [2],95.6%
same,remaining activity at 0.3 µM,HIPK2; [1],106%
same,remaining activity at 0.3 µM,HIPK2; [2],96.6%
same,remaining activity at 0.3 µM,c-MET; [1],104%
same,remaining activity at 0.3 µM,c-MET; [2],102%
same,remaining activity at 0.3 µM,MST4; [1],101%
same,remaining activity at 0.3 µM,MST4; [2],92.7%
same,remaining activity at 0.3 µM,MSK2/RPS6KA4; [1],99%
same,remaining activity at 0.3 µM,MSK2/RPS6KA4; [2],95%
same,remaining activity at 0.3 µM,MKK6; [1],116%
same,remaining activity at 0.3 µM,MKK6; [2],115%
same,remaining activity at 0.3 µM,NEK3; [1],89%
same,remaining activity at 0.3 µM,NEK3; [2],88%
same,remaining activity at 0.3 µM,BMPR2; [1],89.7%
same,remaining activity at 0.3 µM,BMPR2; [2],89.2%
same,remaining activity at 0.3 µM,TTBK1; [1],97.2%
same,remaining activity at 0.3 µM,TTBK1; [2],94%
same,remaining activity at 0.3 µM,ERK1; [1],108%
same,remaining activity at 0.3 µM,ERK1; [2],107%
same,remaining activity at 0.3 µM,ABL1; [1],109%
same,remaining activity at 0.3 µM,ABL1; [2],107%
same,remaining activity at 0.3 µM,MEK5; [1],110%
same,remaining activity at 0.3 µM,MEK5; [2],108%
same,remaining activity at 0.3 µM,NEK7; [1],90.2%
same,remaining activity at 0.3 µM,NEK7; [2],89.5%
same,remaining activity at 0.3 µM,SRPK1; [1],96.5%
same,remaining activity at 0.3 µM,SRPK1; [2],93.9%

# From paper PMC8429728, “TNK1 is a ubiquitin-binding and 14-3-3-regulated kinase that can be targeted to block tumor growth” (Nature Communications, 2021)
